Among the data in US8916570B2 (The United States of America, as represented by the …, priority 2008, dated 2014) are inhibition and Ki values, retold here.

One assay deals with T1, hA1AR (Homo sapiens, UniProt P30542).
T1 construct: expressed in transfected cells; host or cells: CHO
T1 sequence (P30542 1-326): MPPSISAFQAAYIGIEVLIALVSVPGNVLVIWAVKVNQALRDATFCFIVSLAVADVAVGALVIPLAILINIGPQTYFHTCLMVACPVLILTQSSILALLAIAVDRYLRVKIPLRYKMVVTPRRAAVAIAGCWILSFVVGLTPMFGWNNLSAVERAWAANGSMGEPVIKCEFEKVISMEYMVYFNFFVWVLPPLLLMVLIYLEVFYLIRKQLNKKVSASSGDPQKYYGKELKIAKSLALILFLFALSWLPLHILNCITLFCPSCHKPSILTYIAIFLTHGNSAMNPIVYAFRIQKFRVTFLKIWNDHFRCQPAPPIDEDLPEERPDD
Nature of the assay: Binding at hA1AR, CHO membranes (Example 7). Conditions: read-out: % inhibition hA1.

Another assay concerns the target T2, hA2AAR (Homo sapiens, UniProt P29274).
T2 construct: expressed in transfected cells
As to the kind of experiment: Binding at hA2AAR, HEK-293 membranes (Example 7). Conditions: for inhibition at 10 µM: read-out: % inhibition hA2A; for Ki: read-out: Affinity (Ki, nM) hA2A. On the procedure: After harvesting, cells were homogenized and suspended in PBS.
Nonspecific binding was determined using a final concentration of 10 μM 51 diluted with the buffer.

In the next assay the target is T3, hA3AR (Homo sapiens, UniProt P0DMS8).
T3 construct: expressed in transfected cells; host or cells: CHO
T3 sequence (P0DMS8 1-318): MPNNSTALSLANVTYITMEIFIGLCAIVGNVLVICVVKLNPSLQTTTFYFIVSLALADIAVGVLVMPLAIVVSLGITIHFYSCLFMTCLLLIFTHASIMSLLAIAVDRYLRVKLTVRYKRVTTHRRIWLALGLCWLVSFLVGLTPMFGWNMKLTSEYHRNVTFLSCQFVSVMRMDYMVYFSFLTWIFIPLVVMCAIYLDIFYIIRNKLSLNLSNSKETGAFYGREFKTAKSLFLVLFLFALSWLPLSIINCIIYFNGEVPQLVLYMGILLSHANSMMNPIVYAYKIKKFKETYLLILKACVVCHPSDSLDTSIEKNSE
Nature of the assay: Binding at hA3AR, CHO membranes (Example 7). Conditions: read-out: Affinity (Ki, nM) hA3.

T2 sequence (P29274 whole entry): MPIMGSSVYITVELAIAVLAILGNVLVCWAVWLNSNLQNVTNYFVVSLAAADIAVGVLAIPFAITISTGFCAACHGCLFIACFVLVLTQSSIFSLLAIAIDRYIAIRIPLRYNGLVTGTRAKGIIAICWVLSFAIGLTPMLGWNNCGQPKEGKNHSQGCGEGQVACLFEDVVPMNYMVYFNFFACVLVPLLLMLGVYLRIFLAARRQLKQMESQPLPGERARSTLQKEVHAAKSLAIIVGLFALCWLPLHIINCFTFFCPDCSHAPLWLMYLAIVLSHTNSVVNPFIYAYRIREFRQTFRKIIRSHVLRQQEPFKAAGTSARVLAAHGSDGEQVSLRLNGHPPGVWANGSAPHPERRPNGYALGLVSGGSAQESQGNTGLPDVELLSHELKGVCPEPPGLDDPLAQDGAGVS
Description for hA1AR: (§1) CHO cells stably expressing the recombinant hA1, hA3, and rA3Rs, and HEK-293 cells stably expressing the hA2AAR were cultured in Dulbecco's modified Eagle medium (DMEM) and F12 (1:1) supplemented with 10% fetal bovine serum, 100 units/mL penicillin, 100 μg/mL streptomycin, and 2 μmol/mL glutamine. In addition, 800 μg/mL geneticin was added to the A2A media, while 500 μg/mL hygromycin was added to the A1 and A3 media. After harvesting, cells were homogenized and suspended in PBS. Cells were then centrifuged at 240 g for 5 min, and the pellet was resuspended in 50 mM Tris-HCl buffer (pH 7.5) containing 10 mM MgCl2. The suspension was homogenized and was then ultra-centrifuged at 14,330 g for 30 min at 4° C. […] The protein concentration was measured using the BCA Protein Assay Kit from Pierce Biotechnology, Inc. (Rockford, Ill.).
(§2) Into each tube in the binding assay was added 50 μL of increasing concentrations of the test ligand in Tris-HCl buffer (50 mM, pH 7.5) containing 10 mM MgCl2, 50 μL of the appropriate agonist radioligand, and finally 100 μL of membrane suspension. […] For the A2AAR (20 μg/tube) the radioligand used was [^3H]53 (10 nM). […] Nonspecific binding was determined using a final concentration of 10 μM 51 diluted with the buffer. The mixtures were incubated at 25° C. for 60 min in a shaking water bath. Binding reactions were terminated by filtration through Brandel GF/B filters under a reduced pressure using a M-24 cell harvester (Brandel, Gaithersburg, Md.). Filters were washed three times with 3 mL of 50 mM ice-cold Tris-HCl buffer (pH 7.5). […] Filters for A3AR binding were counted using a Packard COBRA™ II γ-counter. The Ki values were determined using GraphPad Prism for all assays.
Description for hA3AR: as §1, §2

Broadly, the inhibition is how much of the control response was suppressed. With `CNC(=O)[C@@]12C[C@@H]1[C@@H](n1cnc3c(NCc4cccc(Cl)c4)nc(C#Cc4ccc(F)c(F)c4)nc31)[C@H](O)[C@@H]2O` [Compound 331, (1S,2R,3S,4R,5S)-4-(6-(3-Chlorobenzylamino)-2-((3,4-difluorophenyl)ethynyl)-9H-purin-9-yl)-2,3-dihydroxy-N-methylbicyclo[3.1.0]hexane-1-carboxamide], the inhibition at 10 µM at hA1AR is 3%; at hA2AAR it was 41%.
Usually Ki stands for a dissociation constant, usually derived from enzyme kinetics or from competition with a known ligand. For the molecule `CNC(=O)[C@@]12C[C@@H]1[C@@H](n1cnc3c(NC)nc(C#Cc4ccc(-c5ccccc5)cc4)nc31)[C@H](O)[C@@H]2O` [Compound 324, (1S,2R,3S,4R,5S)-4-(2-(Biphenyl-4-ylethynyl)-6-(methylamino)-9H-purin-9-yl)-2,3-dihydroxy-N-methylbicyclo[3.1.0]hexane-1-carboxamide], the figures for the inhibition at 10 µM at hA1AR and on hA2AAR were 20% and 29%, respectively. Moreover, on hA3AR, the inhibition constant Ki came to 3.1 ± 1.26 nM.
For `CNC(=O)[C@@]12C[C@@H]1[C@@H](n1cnc3c(NCc4cccc(Cl)c4)nc(C#Cc4ccc5ccc6cccc7ccc4c5c67)nc31)[C@H](O)[C@@H]2O` [Compound 336, (1S,2R,3S,4R,5S)-4-(6-(3-Chlorobenzylamino)-2-(pyren-1-ylethynyl)-9H-purin-9-yl)-2,3-dihydroxy-N-methylbicyclo[3.1.0]hexane-1-carboxamide] the same measures were 6%, 66% and 68.3 ± 12.5 nM.
As to `CNC(=O)[C@@]12C[C@@H]1[C@@H](n1cnc3c(NC)nc(C#Cc4ccccc4)nc31)[C@H](O)[C@@H]2O` [Compound 309, (1S,2R,3S,4R,5S)-2,3-Dihydroxy-N-methyl-4-(6-(methylamino)-2-(phenylethynyl)-9H-purin-9-yl)bicyclo[3.1.0]hexane-1-carboxamide], the inhibition at 10 µM was determined as 18% at hA1AR and 14% on hA2AAR.
`CNC(=O)[C@@]12C[C@@H]1[C@@H](n1cnc3c(NC)nc(C#Cc4cccc(Cl)c4)nc31)[C@H](O)[C@@H]2O` [Compound 315, (1S,2R,3S,4R,5S)-4-(2-((3-Chlorophenyl)ethynyl)-6-(methylamino)-9H-purin-9-yl)-2,3-dihydroxy-N-methylbicyclo[3.1.0]hexane-1-carboxamide]: on hA1AR, the inhibition at 10 µM turned out to be 11%. Moreover, the inhibition constant (Ki) at hA2AAR came out at 1270 ± 300 nM; at hA3AR, 1.6 ± 0.6 nM.
In the case of `CCc1ccc(C#Cc2nc(NC)c3ncn([C@H]4[C@H](O)[C@H](O)[C@]5(C(=O)NC)C[C@H]45)c3n2)cc1` [Compound 321, (1S,2R,3S,4R,5S)-4-(2-((4-Ethylphenyl)ethynyl)-6-(methylamino)-9H-purin-9-yl)-2,3-dihydroxy-N-methylbicyclo[3.1.0]hexane-1-carboxamide], the results for the inhibition at 10 µM at hA1AR and on hA2AAR were 14% and 38%, respectively. Further, the Ki on hA3AR amounted to 3.78 ± 1.16 nM.
For `CNC(=O)[C@@]12C[C@@H]1[C@@H](n1cnc3c(NC)nc(C#Cc4ccccc4F)nc31)[C@H](O)[C@@H]2O` [Compound 311, (1S,2R,3S,4R,5S)-4-(2-((2-Fluorophenyl)ethynyl)-6-(methylamino)-9H-purin-9-yl)-2,3-dihydroxy-N-methylbicyclo[3.1.0]hexane-1-carboxamide], in that order: 20%, 17% and 0.97 ± 0.38 nM.
For `CNC(=O)[C@@]12C[C@@H]1[C@@H](n1cnc3c(NC)nc(C#Cc4ccc(F)c(F)c4)nc31)[C@H](O)[C@@H]2O` [Compound 319, (1S,2R,3S,4R,5S)-4-(2-((3,4-Difluorophenyl)ethynyl)-6-(methylamino)-9H-purin-9-yl)-2,3-dihydroxy-N-methylbicyclo[3.1.0]hexane-1-carboxamide] the same measures were 6%, 6% and 1.65 ± 0.08 nM.
For `CNC(=O)[C@@]12C[C@@H]1[C@@H](n1cnc3c(NC)nc(C#Cc4cccc5ccccc45)nc31)[C@H](O)[C@@H]2O` [Compound 325, (1S,2R,3S,4R,5S)-2,3-Dihydroxy-N-methyl-4-(6-(methylamino)-2-(naphthalen-1-ylethynyl)-9H-purin-9-yl)bicyclo[3.1.0]hexane-1-carboxamide], in that order: 24%, 34% and 1.67 ± 0.18 nM.
Turning to `CNC(=O)[C@@]12C[C@@H]1[C@@H](n1cnc3c(NC)nc(C#Cc4ccc(Br)cc4)nc31)[C@H](O)[C@@H]2O` [Compound 317, (1S,2R,3S,4R,5S)-4-(2-((4-Bromophenyl)ethynyl)-6-(methylamino)-9H-purin-9-yl)-2,3-dihydroxy-N-methylbicyclo[3.1.0]hexane-1-carboxamide], the inhibition at 10 µM on hA1AR stood at 11%; at hA2AAR, 26%. Moreover, the Ki at hA3AR turned out to be 0.91 ± 0.06 nM.
In the case of `CNC(=O)[C@@]12C[C@@H]1[C@@H](n1cnc3c(NC)nc(C#Cc4ccccn4)nc31)[C@H](O)[C@@H]2O` [Compound 310, (1S,2R,3S,4R,5S)-2,3-Dihydroxy-N-methyl-4-(6-(methylamino)-2-(pyridin-2-ylethynyl)-9H-purin-9-yl)bicyclo[3.1.0]hexane-1-carboxamide], the inhibition at 10 µM at hA1AR and at hA2AAR was 13% in each case.
As for `CNC(=O)[C@@]12C[C@@H]1[C@@H](n1cnc3c(NC)nc(C#Cc4ccc(C(C)(C)C)cc4)nc31)[C@H](O)[C@@H]2O` [Compound 322, (1S,2R,3S,4R,5S)-4-(2-((4-tert-Butylphenyl)ethynyl)-6-(methylamino)-9H-purin-9-yl)-2,3-dihydroxy-N-methylbicyclo[3.1.0]hexane-1-carboxamide], the inhibition at 10 µM on hA1AR was found to be 27%; on hA2AAR, 7%. Also, the Ki at hA3AR was determined as 10.1 ± 1.9 nM.
As for `CNC(=O)[C@@]12C[C@@H]1[C@@H](n1cnc3c(NC)nc(C#Cc4cccc(N)c4)nc31)[C@H](O)[C@@H]2O` [Compound 318, (1S,2R,3S,4R,5S)-4-(2-((3-Aminophenyl)ethynyl)-6-(methylamino)-9H-purin-9-yl)-2,3-dihydroxy-N-methylbicyclo[3.1.0]hexane-1-carboxamide], the inhibition at 10 µM on hA1AR came out at 16%; at hA2AAR it was 19%. The Ki on hA3AR came to 1.07 ± 0.14 nM.
For `CNC(=O)[C@@]12C[C@@H]1[C@@H](n1cnc3c(NC)nc(C#Cc4cccc(F)c4)nc31)[C@H](O)[C@@H]2O` [Compound 312, (1S,2R,3S,4R,5S)-4-(2-((3-Fluorophenyl)ethynyl)-6-(methylamino)-9H-purin-9-yl)-2,3-dihydroxy-N-methylbicyclo[3.1.0]hexane-1-carboxamide], in that order: 14%, 10% and 0.97 ± 0.24 nM.
Turning to `CNC(=O)[C@@]12C[C@@H]1[C@@H](n1cnc3c(NCc4cccc(Cl)c4)nc(C#Cc4cccc(Cl)c4)nc31)[C@H](O)[C@@H]2O` [Compound 330, (1S,2R,3S,4R,5S)-4-(6-(3-Chlorobenzylamino)-2-((3-chlorophenyl)ethynyl)-9H-purin-9-yl)-2,3-dihydroxy-N-methylbicyclo[3.1.0]hexane-1-carboxamide], on hA1AR, the inhibition at 10 µM is 0%. The Ki at hA2AAR was 1620 nM; at hA3AR, 1.95 nM.
With `CNC(=O)[C@@]12C[C@@H]1[C@@H](n1cnc3c(NC)nc(C#Cc4cc(F)cc(F)c4)nc31)[C@H](O)[C@@H]2O` [Compound 320, (1S,2R,3S,4R,5S)-4-(2-((3,5-Difluorophenyl)ethynyl)-6-(methylamino)-9H-purin-9-yl)-2,3-dihydroxy-N-methylbicyclo[3.1.0]hexane-1-carboxamide], the inhibition at 10 µM at hA1AR was found to be 6%; at hA2AAR, 47%. Also, on hA3AR, the Ki was 1.66 ± 0.36 nM.
For `CNC(=O)[C@@]12C[C@@H]1[C@@H](n1cnc3c(NCc4cccc(Cl)c4)nc(C#Cc4cccc(C(=O)O)c4)nc31)[C@H](O)[C@@H]2O` [Compound 333, 3-((6-(3-Chlorobenzylamino)-9-((1S,2R,3S,4R,5S)-3,4-dihydroxy-5-(methylcarbamoyl)bicyclo[3.1.0]hexan-2-yl)-9H-purin-2-yl)ethynyl)benzoic acid] the same measures were 1%, 38% and 6.75 ± 2.78 nM.
As to `CNC(=O)[C@@]12C[C@@H]1[C@@H](n1cnc3c(NC)nc(C#Cc4cc5ccccc5c5ccccc45)nc31)[C@H](O)[C@@H]2O` [Compound 326, (1S,2R,3S,4R,5S)-2,3-Dihydroxy-N-methyl-4-(6-(methylamino)-2-(phenanthren-9-ylethynyl)-9H-purin-9-yl)bicyclo[3.1.0]hexane-1-carboxamide], the values for the inhibition at 10 µM on hA1AR and on hA2AAR were 15% and 52%, respectively. Besides, the inhibitory constant (Ki) at hA3AR came out at 3.48 ± 1.36 nM.
